Earlier results as cited in patent US20150258085A1, “Treating Tumors of the Central Nervous System” (THE REGENTS OF THE UNIVERSITY OF CALIFORNIA, priority 2012, published 2015).

Tested on: newly diagnosed glioblastoma
Settings: systemic irinotecan plus TMZ versus TMZ alone

## CCc1c2c(nc3ccc(OC(=O)N4CCC(N5CCCCC5)CC4)cc13)-c1cc3c(c(=O)n1C2)COC(=O)[C@]3(O)CC [irinotecan]
  clinical outcome: comparable to TMZ alone
  toxicity / tolerability: more toxic and poorly tolerated
